Patent publication US6914072B2, “Cannabinoid drugs” (Indevus Pharmaceuticals, Inc., priority 2000, dated 2005)

Key:
C6 glioma cells [1] = assay: Co-incubation of C6 glioma cells with a CB1 antagonist; format: cell-based; conditions: 3.2 μM of a specific CB1 antagonist
Description: (§1) Cell proliferation assays. […] 5:69-84, 1995.
First, the compound's inhibition of cell proliferation was not reversible with a CB1 antagonist.

U118 = assay: 48 hour MTT assay, U118 (brain); format: cell-based, human; conditions: 25 μM
Procedure: as §1
(§2) The proliferation of a number of human cell lines derived from a variety of cancer types (brain, breast, bladder, lung, and prostate) was tested for sensitivity to 25 μM of each agent for 48 hours.

C6 cells [2] = assay: Cell morphology (phase and electron microscopy), C6 cells; format: cell-based
Procedure: (§3) In order to investigate this effect further, the effect of ajulemic acid on cell cycle kinetics was assessed. C6 glioma cells were incubated for 24 hours in media containing 0.5% serum to synchronize them in G1/G0. The cells were then exposed to media containing 10% serum either with or without 25 μM ajulemic acid for two days.
Third, another distinctive feature of ajulemic acid's antitumor effect was the appearance of retractile bodies that could be easily visualized with phase microscopy. Both the number of cells that had refractile bodies as well as the number of refractile bodies/cell increased over time. After 48 hours, 83% of ajulemic acid-treated C6 cells had one or more refractile bodies compared to 27% to THC-treated cells (p<0.001, Chi-square analysis). The mean number of refractile bodies per cell was also much higher for ajulemic acid-treated cells compared to THC-treated cells (1.78±1.6 vs. 0.22±0.5 per cell, p<0.001, t-test).
To further explore the nature of the cell enlargement and refractile bodies, cells were examined under electron microscopy. […] In fact, these cells appeared metabolically active. […] Moreover, ajulemic acid-treated cells were enlarged and contained large lipid droplets, the identity of which was confirmed by […].

J82 = assay: 48 hour MTT assay, J82 (bladder); format: cell-based, human; conditions: 25 μM
Procedure: as §1, §2

Du145 = assay: 48 hour MTT assay, Du145 (prostate); format: cell-based, human; conditions: 25 μM
Procedure: as §1, §2

HT1376 = assay: 48 hour MTT assay, HT1376 (bladder); format: cell-based, human; conditions: 25 μM
Procedure: as §1, §2

Calu6 = assay: 48 hour MTT assay, Calu6 (lung); format: cell-based, human; conditions: 25 μM
Procedure: as §1, §2

HS578T = assay: 48 hour MTT assay, HS578T (breast); format: cell-based, human; conditions: 25 μM
Procedure: as §1, §2

U87 = assay: 48 hour MTT assay, U87 (brain); format: cell-based, human; conditions: 25 μM
Procedure: as §1, §2

[3] = system: human cell lines derived from a variety of cancer types (brain, breast, bladder, lung, and prostate); assay: 48 hour MTT assay, panel of ten human cancer cell lines (mean); format: cell-based; conditions: 25 μM; for Inhibition level (mean±SD) over the human cancer cell lines: 48 hours, mean±SD of ten lines
Procedure: as §1, §2

U373 = assay: 48 hour MTT assay, U373 (brain); format: cell-based, human; conditions: 25 μM
Procedure: as §1, §2

PC3 = assay: 48 hour MTT assay, PC3 (prostate); format: cell-based, human; conditions: 25 μM
Procedure: as §1, §2

A172 = assay: 48 hour MTT assay, A172 (brain); format: cell-based, human; conditions: 25 μM
Procedure: as §1, §2

[4] = Stereospecificity of the proliferation effect (D-isomer vs L-isomer); format: cell-based; conditions: 25 μM dose, p<0.001, FIG. 2
Description: as §1
To assess whether ajulemic acid's effect was receptor-mediated, a preparation 95% enriched in the D-isomer of ajulemic acid was used to examine the stereospecificity of the effect observed above.

[5] = system: human glioma cell line U87; assay: In vivo subcutaneous U87 nude mouse tumor model; set-up: species or system male nu/nu BALBc mice; conditions: 0.1 mg/kg thrice weekly, FIG. 4
Procedure: In vivo subcutaneous model. 10^6 U87 cells were injected into the right […] of male nu/nu BALBc mice (Charles River). Two days after inoculation, the mice received either 0.1 mg/kg ajulemic acid in 0.05 ml of safflower oil, or 0.05 ml safflower oil by oral administration. Thereafter, identical dosings were performed on each Monday, Wednesday, and Friday. When visible tumors appeared, the size of the tumors were estimated by averaging the values of two roughly perpendicular diameters measurements. Visible tumors were measured on the days of drug administration.
Whether ajulemic acid has in vivo antitumor activity was determined using a nude mouse tumor model. The growth of the human glioma cell line U87 injected subcutaneously in nude mice was assessed with and without ajulemic acid administration. For these experiments, ajulemic acid treatment was initiated two days after inoculation of 10^6 tumor cells in the mice. […] At day 25 post-inoculation, 5 of 5 control mice had tumors with a mean diameter of 16.3±3.2 mm, while the mean diameter in the treated group was 3.8±8.5 mm (n=5, p-0.015, t-test).

C6 cells [6] = assay: Lipid incorporation assay (14C-arachidonic acid); format: cell-based; conditions: 25 μM, 48 hours
WI38 cells = assay: Refractile bodies by phase microscopy, WI38 cells; format: cell-based, rat; conditions: same length of time and dosage (48 hours)
PKC activity in C6 cells = assay: Protein kinase C (PKC) assay; format: cell-based; conditions: 25 μM
Procedure: Protein kiniase C (PKC) assay. Cells were transferred into MEM media (0.5% serum) and cultured overnight. The next day, cells were treated with either DMSO or 25 μM ajulemic acid for the specified incubation time, after which the plates were trypsinized. 5×10^6 trypsinized cells were assayed for PKC activity using a kit (Calbiochem, cat. no. 53984).
Because diacyl glycerol (DAG) is an important signal transducer of protein kinase C, the effect of ajulemic acid treatment on the PKC activity in C6 cells was examined. […] At least two alternative explanations for this observation exist: (1) the PKC isozymes that were stimulated were those with slow growth, such as PKCδ; and (2) the increased DAG was modulating some other downstream mediator, such as β-chimaerin, to a greater extent such that the balance is towards anti-proliferation.

[7] = system: normal fibroblast cell line WI38; assay: MTT cell proliferation assay, WI38 cells; conditions: 25 μM, two days, three different experiments
C6 cells [8] = assay: Viability by trypan blue exclusion; format: cell-based; conditions: ajulemic acid-treated cells
C6 glioma cells [9] = assay: MTT cell proliferation assay, C6 glioma cells; format: cell-based
Procedure: as §1, §2

C6 glioma cells [10] = assay: Flow cytometry/cell cycle analysis; format: cell-based; conditions: 25 μM, two days in 10% serum after synchronization; control 4.4 ± 0.3
Procedure: Flow cytometry/cell cycle analysis. For flow cytometry, cells were grown in low serum (0.5%) for two days to synchronize cells in G0/G1, after which they were placed in high serum (10%) for two days. The cells were then labeled with propidium iodide and fixed in 4% paraformaldehyde. Cells were examined using a MoFlo Facs sorter for DNA content.
as §3

| SMILES | Percent inhibition of human cancer cell line growth in 48 hour MTT assay (U118) | Percent inhibition of human cancer cell line growth in 48 hour MTT assay (J82) | Percent inhibition of human cancer cell line growth in 48 hour MTT assay (Du145) | Percent inhibition of human cancer cell line growth in 48 hour MTT assay (HT1376) | Percent inhibition of human cancer cell line growth in 48 hour MTT assay (Calu6) | Percent inhibition of human cancer cell line growth in 48 hour MTT assay (HS578T) | Percent inhibition of human cancer cell line growth in 48 hour MTT assay (U87) | Inhibition level (mean±SD) over the human cancer cell lines [3] | Percent inhibition of human cancer cell line growth in 48 hour MTT assay (U373) | Percent inhibition of human cancer cell line growth in 48 hour MTT assay (PC3) | Percent inhibition of human cancer cell line growth in 48 hour MTT assay (A172) | other results |
| --- | --- | --- | --- | --- | --- | --- | --- | --- | --- | --- | --- | --- |
| CCCCCc1cc(O)c2c(c1)OC(C)(C)[C@@H]1CCC(C)=C[C@@H]21 [Δ^9-THC, tetrahydrocannabinol, reference compound] |  |  |  |  |  |  |  |  |  |  |  | Decrease in potency on co-incubation with CB1 antagonist (C6 glioma cells [1]): 150% |
| CCCCCc1cc(O)c2c(c1)OC(C)(C)[C@@H]1CC=C(C(=O)O)C[C@@H]21 [THC-11-oic acid, reference compound] | 14 ± 3% | 3 ± 1% | 7 ± 3% | 21 ± 12% | 19 ± 5% | 2 ± 1% | 5 ± 1% | 13.1±18.5% | 0% | 1 ± 1% | 61 ± 2% | Refractile bodies (in words), C6 glioma cells (C6 cells [2]; 25 μM, 48 hours): no retractile bodies were noted |
| CCCCCCC(C)(C)c1cc(O)c2c(c1)OC(C)(C)[C@@H]1CC=C(C(=O)O)C[C@@H]21 (single isomer, unassigned) [D-isomer of ajulemic acid] |  |  |  |  |  |  |  |  |  |  |  | Potency of D-isomer compared to L-isomer of ajulemic acid [4]: marked decrease in the potency |
| CCCCCCC(C)(C)c1cc(O)c2c(c1)OC(C)(C)[C@@H]1CC=C(C(=O)O)C[C@@H]21 [ajulemic acid, 1′,1′-dimethylheptyl-Δ^8-THC11-oic acid] | 60 ± 2% | 57 ± 3% | 74 ± 2% | 60 ± 2% | 69 ± 3% | 60 ± 2% | 54 ± 2% | 61.3 ±12.1% | 34 ± 1% | 69 ± 2% | 76 ± 1% | Tumor appearance and size (in words) [5]: A delay in both the appearance and size of tumors; Appearance of treated cells under electron microscopy (C6 cells [2]): neither apoptotic nor necrotic; Content of tri- and di-glyceride relative to controls (C6 cells [6]): over three-fold greater than in controls; Neutral lipids (14C-arachidonic acid incorporation) versus basal levels (C6 cells [6]; p<0.05 Dunnett's test, FIG. 3): significant increase above basal levels; Refractile bodies (in words), WI38 cells (WI38 cells): no retractile bodies were noted; Onset of PKC activity increase (PKC activity in C6 cells): increased within five minutes; PKC activity relative to control (PKC activity in C6 cells; for one hour): approximately two-fold above that of control; Inhibition of WI38 cell proliferation [7]: 44%; Viability rate by trypan blue exclusion (C6 cells [8]): > 95%; Inhibition of C6 cell proliferation (C6 glioma cells [9]; 25 μM, two days, three different experiments): 65%; IC50 (C6 glioma cells [9]; C6 glioma cells, FIG. 1, read-out: IC50, inhibition of C6 glioma cells (MTT assay)): 55 µM; S (mean % ± SD) (C6 glioma cells [10]): 13.0%; Effectiveness compared to THC in the ten lines ([3]; p<0.05, in six of the ten lines tested): significantly more effective; Change of effect on co-incubation with CB1 antagonist (in words) (C6 glioma cells [1]): slight potentiation |
